Data on 73 compounds can be found in PubChem BioAssay AID2384 (Southern Research Specialized Biocontainment Screening …, 2010).

“And” between values parts separate entries of the source, which are not always exact repeats. Equal entries are not always repeated.

The term IC50 denotes the concentration that inhibits the measured activity by half.

The subject of the assay is S. typhi GFP reporter counter-screen, fluorescence, 4 h. Kind of assay: inhibitors in S. typhi counter-screen strain, dose response, counter-screen for PhoP regulon inhibitor project, fluorescence, 4 h (AID 2384). Background: Counterscreens check selectivity or assay interference.
Take `CCCCCCCCC[n+]1cccc2c3ccccc3ccc21`: the IC50 was 15.1 µM.
For the compound `O=C(CC(=O)c1c(F)cccc1Cl)c1ccccc1O`, the IC50 is 42.9 µM.
Consider `CC(NCC(O)COc1ccc2ccccc2c1)c1ccccc1` (stereo not drawn), for which the IC50 is 58.4 µM.
For the compound `C1=C(CCNCc2ccccc2)CCCC1`, the IC50 was 16.8 µM.
The same measure for `O=C1CN(/N=C/c2ccc([N+](=O)[O-])o2)C(=O)N1`: 41.6 µM.
As to `CCN(CCNCC(O)COc1ccccc1C(C)C)c1cccc(C)c1` (stereo not drawn), the IC50 is 37.7 µM.
Take `CCCOc1ccc(S(=O)(=O)n2cc(F)c(=O)[nH]c2=O)cc1`: the IC50 was 139 µM.
Then `c1cnc2c(c1)ccc1cccnc12`, with 35 µM and 31.3 µM; and `CCCCCCCCCCOC(=O)Cn1c(COc2ccc(C)cc2)[n+](C)c2ccccc21`, with 18.3 µM.
`CC1CC(C)CN(CCOc2ccc(Cl)cc2Cl)C1` (stereo not drawn): the IC50 is 88.2 µM.
The same measure for `O=C(Nc1ccncc1)Nc1ccc(Cl)cc1`: 85.2 µM; for `Clc1cc(Br)ccc1OCCCNCc1ccccc1`: 39.3 µM; for `CCCCn1c(NS(=O)(=O)c2ccccc2)c(C(=O)OCC)c2nc3ccccc3nc21`: 58.9 µM.
Then `Cc1occc1C(=O)N/N=C/c1cccs1`, with 54.9 µM; and `[O-][n+]1c2c(c3c4non(O)c4ccc31)CCCC2`, with 79.2 µM; and `NC(=O)SCC(=O)Nc1ccc(Cl)cc1`, with 46.2 µM.
Consider `Nc1cccc2nc3ccccc3cc12`, for which the IC50 was 68.7 µM.
Then `O=C(Nc1ccc(Cl)cc1)Nc1ccc2c(c1)N1CCN=C1S2`, with 76.3 µM; and `O=C(N/N=C/c1cc(Cl)ccc1O)c1cccnc1`, with 20.9 µM.
The same measure for `O=[N+]([O-])c1cc(Cl)c2cccnc2c1O`: 4.25 µM.
In the case of `c1ccc(Nc2nc(NCc3ccco3)c3ccccc3n2)cc1`, the IC50 is 21.5 µM.
Consider `COc1ccccc1C(C[N+](=O)[O-])c1c(N)n(C)c(=O)n(C)c1=O` (stereo not drawn), for which the IC50 was 38.5 µM.
`CCN1CCN(CCNC(=O)c2ccc3c(c2)N(Cc2ccc(F)cc2)C(=O)/C(=C/c2ccccc2)S3)CC1`: the half-maximal inhibitory concentration (IC50) is 45.5 µM.
`CN(C)c1ccc(Nc2nc(N)c3ccccc3n2)cc1`: the IC50 is 77.7 µM.
Consider `CN(C)CCCN1c2ccccc2Sc2ccccc21`, for which the IC50 is 40.1 µM.
Consider `COc1ccc(S(=O)(=O)N2CN3CCN(C3)C2)cc1`, for which the IC50 is 90.8 µM.
`Oc1c(C(Nc2ccccn2)c2cccnc2)cc(Cl)c2cccnc12` (stereo not drawn): the IC50 was 25.5 µM.
Take `Cc1ccc(NC(=O)c2ccccc2)s1`: the IC50 is 110 µM.
As to `NC(N)=N/N=C/c1ccc(OCc2ccc(Cl)cc2Cl)cc1`, the IC50 is 10.3 µM.
Then `COc1cc(CNCCc2ccccc2)cc(Cl)c1OCc1ccccc1`, with 37.6 µM; and `O=C1OCC(CO)(CO)N=C1NNc1ccc(Cl)c(Cl)c1`, with 144 µM; and `COc1cc(/C=C/[N+](=O)[O-])ccc1O`, with 45 µM.
The same measure for `COc1ccc(CNCCC(c2ccccc2)c2ccc3c(c2)OCO3)cc1` (stereo not drawn): 73.4 µM.
The same measure for `Clc1ccc(Nc2ccc(NCc3ccccc3)nn2)cc1`: 90.7 µM; for `Cc1ccccc1C(=O)NNC(=S)NC(=O)COc1ccccc1`: 126 µM; for `CN1CCC(OC(=O)c2ccc(Br)cc2)CC1`: 18.2 µM.
Turning to `COc1ccc(CNCCc2cccc(F)c2)c2ccccc12`, the IC50 is 61.2 µM.
In the case of `Fc1ccc(CCNCc2ccccc2Cl)cc1`, the half-inhibitory concentration (IC50) is 83.2 µM.
Then `O=C(Nc1ccccc1)Oc1ccc[nH]c1=O`, with 52.9 µM; and `N#C/C(=C\c1ccc(O)c(O)c1)C(=O)NCc1ccccc1`, with 132 µM; and `O=C(Nc1nccs1)c1ccc(Cl)cc1[N+](=O)[O-]`, with 97.6 µM.
For the compound `O=[N+]([O-])c1cc(/C=N/Nc2nc3ccccc3[nH]2)c(O)cc1O`, the 50% inhibitory concentration (IC50) is 17.8 µM.
The same measure for `Fc1ccc([C@@H]2CCNC[C@H]2COc2ccc3c(c2)OCO3)cc1`: 19.2 µM; for `C/C(=N/Nc1ccnc2cc(Cl)ccc12)c1ccc(N)cc1`: 73.9 µM.
Then `NC1=NC[C@H](CC2CCCCC2)N1CCc1cc(C(F)(F)F)cc(C(F)(F)F)c1`, with 35.2 µM; and `NC(N)=Nc1nc(-c2ccccc2)c2cc(Cl)ccc2n1`, with 90.2 µM; and `O=C(Cc1ccccc1)N/N=C/c1cc(Br)cc(Cl)c1O`, with 26.4 µM.
Then `Clc1ccc(C(c2ccc(Cl)cc2)n2cc[n+](CC(OCc3ccc(Cl)cc3Cl)c3ccc(Cl)cc3Cl)c2)cc1` (stereo not drawn), with 9.7 µM; and `Cn1ncnc2c(=O)n(C)c(=O)nc1-2`, with 2.53 µM; and `CC(C)(C)CC(C)(C)c1ccc(OCCOCC[N+](C)(C)Cc2ccccc2)cc1`, with 21.6 µM.
Consider `CN1CCc2c(sc(NC(=O)c3ccc([N+](=O)[O-])o3)c2C(N)=O)C1`, for which the half-maximal inhibitory concentration (IC50) is 17.1 µM.
Then `O=C(Nc1c(Cl)ccc2nsnc12)c1ccc([N+](=O)[O-])o1`, with 137 µM.
The same measure for `Fc1ccc(Nc2ccnc(Nc3ccc(F)cc3)n2)cc1`: 24.8 µM; for `CC[n+]1c(/C=C/C=C/c2ccc(N(C)C)cc2)sc2ccccc21`: 128 µM; for `COc1ccc(CNc2ncnc3c2[nH]c2ccccc23)cc1`: 150 µM.
The same measure for `CN(C)CCCNC(=O)c1ccc(-c2nc(-c3ccc(Cl)cc3)cs2)cc1`: 19.7 µM; for `OC(c1cc(C(F)(F)F)nc2c(C(F)(F)F)cccc12)C1CCCCN1` (stereo not drawn): 19.1 µM.
For the compound `COc1ccc(/C=N/Nc2cc(C)nc3ccccc23)cc1`, the IC50 is 29.2 µM.
The same measure for `COc1cc2c(cc1O)[C@H](Cc1ccc(Oc3cc(C[C@@H]4NCCc5cc(OC)c(O)cc54)ccc3O)cc1)NCC2`: 64 µM; for `Cc1ccc2nc(NCc3ccccc3)[nH]c2c1`: 35.2 µM; for `c1ccc2c(c1)CSc1sccc1C2=C1CCNCC1`: 80.3 µM.
Then `CCn1cc(C(=O)O)c(=O)c2cc(F)c(N3CCN(C(=S)NC(=O)c4cc(OC)cc(OC)c4)CC3)cc21`, with 143 µM.
Then `Brc1ccc2c(c1)C(OC1CN3CCC1CC3)c1ccccc1CS2` (stereo not drawn), with 31.8 µM; and `CO[C@H]1C=CO[C@@]2(C)Oc3c(C)c(O)c4c(O)c(c(C=NN5CCN(C)CC5)c(O)c4c3C2=O)NC(=O)C(C)=CC=C[C@H](C)[C@H](O)[C@@H](C)[C@@H](O)[C@@H](C)[C@H](OC(C)=O)[C@@H]1C`, with 35.4 µM.
For `Cc1ccc(CC(=O)Nc2ncc([N+](=O)[O-])s2)cc1`, the 50% inhibitory concentration (IC50) was 78.5 µM.
With `COc1ccc(Nc2nc(NCC3CCCO3)c3ccccc3n2)c(OC)c1` (stereo not drawn), the IC50 is 73.2 µM.
As to `COC(=O)C1C(O)C(C)C(O)C(C)/C=C\C=C(/C)C(=O)Nc2c(C)c(OC(C)=O)c3c(c2O)C(=O)C(C)=C2OCOC(=C23)/C(C)=C/C(C)(O)C(O)C(C)C1O` (stereo not drawn), the IC50 is 15.2 µM.
As to `Cc1cc(O)c2c(c1)C(=O)C13C(=C2O)C(=O)[C@H]2[C@@H](O)[C@@H]1[C@H]1[C@H](O)[C@@H]3C(=O)C3=C(O)c4c(O)cc(C)cc4C(=O)C312` (stereo partly drawn), the IC50 was 7.46 µM.
Take `COc1ccc(NC(=O)c2[nH]ncc2[N+](=O)[O-])cc1`: the IC50 was 133 µM.
Then `Nc1ncncc1-c1ccc([N+](=O)[O-])cc1`, with 43.9 µM.
As for `Nc1nc(F)nc2c1ncn2[C@@H]1O[C@H](CO)[C@@H](O)[C@H]1O`, the IC50 was 24.1 µM.
Then `CN1CCN(c2cc3c(cc2F)c(=O)c(C(=O)O)cn3CCF)CC1`, with 1.06 µM; and `O=C(CCc1ccccc1)NNC(=S)NC(=O)c1ccccc1`, with 63 µM.
